Laboratory results from paper PMC10272112 (Nature Communications, 2023).
pKd: −log10 of the molar value. Values joined by “and” are separate entries in the source; they are usually repeats but may differ in a detail not shown here. Identical values can stand only once. Blank lines part the entries; values can stand above or below the compound they belong to.

How the values were obtained:
HDAC3 = molecular target: T1, HDAC3 (Homo sapiens, UniProt O15379); test: Chemoproteomic competition pulldown assay; type: binding; conditions: iL, MV4-11 lysate
T1 construct: endogenous in cells; host or cells: MV4-11 lysate
Procedure: To identify proteins directly bound by lipoic acid, we employed a chemoproteomic competition assay. Briefly, (R/S)-LA was immobilized on sepharose beads via an amidation reaction to form an affinity matrix (abbreviated as iL; Fig. 1a). This affinity matrix can be incubated with cell lysate to pull down potential LA or LM target proteins and identify these targets via bottom-up proteomics. In a competition assay, free LA or LM were incubated with lysate at different concentrations before pulling down and quantifying target proteins. […] (Fig. 1b, see “Methods” for details). […] The lysate buffer used in this assay contains 1 mM DTT to mimic the intracellular reductive milieu and to reduce lipoic acid and LM. […] Additional competition assays performed in lung adenocarcinoma cell A549 lysate also identified HDAC1, HDAC2, and HDAC6 as targets (Supplementary Fig. 1b). Amongst the three cell lines tested, HDACs were the only confidently identified targets across the 1500–3000 proteins quantified in these assays. […] We validated the results by analogous pulldown competition assays using two other affinity matrices prepared via the immobilization of either the HDAC inhibitor Quisinostat (iQ) and an analog of the class IIa HDAC inhibitor Bürli’s 31[14] (iC)[12]. We have previously shown that these affinity matrices specifically bind to the active sites of HDACs and have used them for HDACi selectivity profiling. Indeed, binding of (R/S)-LA and (R/S)-LM to HDAC1, HDAC2, HDAC3, HDAC6, and, to a lesser extent, HDAC8 was confirmed in these assays (Supplementary Fig. 1c, d). No binding to class IIa HDACs or the recently discovered common HDAC inhibitor off-target MBLAC2 was observed (Supplementary Fig. 1e)[12]. […] This observation might reflect electrostatic repulsion between the HDAC10 active site gate-keeper glutamic acid residues[15],[16] and the terminal carboxylic acid of LA.
To assess the degree of protein depletion from lysates by the affinity matrix, a second pulldown (PDPD) with fresh beads was performed using the unbound protein fraction from the vehicle control flow through. The beads were washed (1 × 1 mL of lysis buffer without inhibitors and only 0.4% Igepal, 2 × 2 mL of lysis buffer without inhibitors and only 0.2% Igepal), and captured proteins were denatured with 8 M urea buffer, alkylated with 55 mM chloroacetamide and digested with Trypsin according to standard procedures. The resulting peptides were desalted on a C18 filter plate (Sep-Pak® tC18 µElution Plate, Waters), vacuum dried, and stored at −20 °C until LC–MSMS measurement.
For the competition assays, relative binding was calculated based on the protein intensity ratio to the DMSO control for every single inhibitor concentration. EC50 values were derived from a four-parameter log-logistic regression with variable slope (constrain: bottom > 0). The obtained EC50 values were multiplied with a protein-dependent correction factor (cf), resulting in the apparent Kd value (Kd^app). The correction factor is determined by calculating the ratio of the protein intensity of two consecutive pulldowns of the vehicle control sample[13]. Targets of the inhibitors were annotated manually according to published procedures[12],[46],[47]. […] Additionally, the number of unique peptides and MSMS counts per condition were taken into account. Positive target binding across several independent experiments performed with different cell lysates further substantiated our confidence for a true positive drug-target binding event.

HDAC10 = molecular target: T2, HDAC10 (Homo sapiens, UniProt Q969S8); test: NanoBRET intracellular target engagement assay; type: cell-based; conditions: HeLa cells
T2 construct: host or cells: HeLa mono-clones, stably expressing
T2 sequence (Q969S8 1-669): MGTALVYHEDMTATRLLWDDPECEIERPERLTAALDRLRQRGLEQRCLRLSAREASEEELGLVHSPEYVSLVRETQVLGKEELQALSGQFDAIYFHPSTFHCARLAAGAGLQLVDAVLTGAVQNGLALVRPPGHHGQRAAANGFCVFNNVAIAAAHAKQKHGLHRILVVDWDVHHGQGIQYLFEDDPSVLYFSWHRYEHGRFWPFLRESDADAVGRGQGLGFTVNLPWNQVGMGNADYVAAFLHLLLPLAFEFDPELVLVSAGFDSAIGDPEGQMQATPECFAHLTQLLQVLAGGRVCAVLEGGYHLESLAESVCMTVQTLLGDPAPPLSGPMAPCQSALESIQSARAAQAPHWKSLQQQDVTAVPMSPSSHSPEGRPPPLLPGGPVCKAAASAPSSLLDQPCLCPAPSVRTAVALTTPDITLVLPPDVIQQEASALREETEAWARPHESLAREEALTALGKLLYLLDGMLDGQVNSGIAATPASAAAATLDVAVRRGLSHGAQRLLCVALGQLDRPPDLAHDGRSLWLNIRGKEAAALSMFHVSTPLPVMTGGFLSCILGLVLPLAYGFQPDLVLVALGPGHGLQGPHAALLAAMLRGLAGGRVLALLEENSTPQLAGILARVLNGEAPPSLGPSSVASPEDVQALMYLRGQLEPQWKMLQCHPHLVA
Procedure: For the production of transfected HeLa mono-clones stably expressing HDAC-nanoBRET fusion proteins of HDAC10 and HDAC6-catalytic domain 2 (HDAC6CD2), plasmids expressing a fusion of HDAC10 with nanoluciferase were obtained from Promega (N2170). HeLa cells (0.75 × 10^6) were seeded in a 6 cm dish and were transfected with a mix of 10 μg plasmid and 3 μL Fugene in 200 μL OptiMEM after 24 h. The intracellular target engagement assay on HDAC10 and HDAC6CD2 was performed using the NanoBRET™ Target Engagement Intracellular HDAC Assay (Promega N2081 and N2090) as described by the kit manufacturer in a 96-well plate (Corning 3600) format with 2 × 10^4 cells per well and a tracer concentration of 0.3 μM. Inhibitors were dosed with a D300e Digital Dispenser (Tecan). DMSO concentrations were normalized to 0.5% for all wells. After dosing, assay plates were shaken at 800 rpm and incubated at 37 °C for 2 h followed by measurement of 450 nm and 650 nm luminescence (80 nm bandwidth) at room temperature with a CLARIOstar (BMG Labtech) plate reader 2 min after NanoLuc substrate addition.

A549 cells [1] = test: CellRox deep red assay for ROS quantification (with or without arsenite); type: cell-based; conditions: sheet 4d
A549 cells [2] = test: CellRox deep red assay for tBuOOH-induced ROS; conditions: for tBuOOH-induced ROS (CellRox), relative to DMSO, Mean / tBuOOH-induced ROS (CellRox), relative to DMSO, replicate values: sheet 4c, DMSO mean = 1

T1 sequence (O15379 whole entry): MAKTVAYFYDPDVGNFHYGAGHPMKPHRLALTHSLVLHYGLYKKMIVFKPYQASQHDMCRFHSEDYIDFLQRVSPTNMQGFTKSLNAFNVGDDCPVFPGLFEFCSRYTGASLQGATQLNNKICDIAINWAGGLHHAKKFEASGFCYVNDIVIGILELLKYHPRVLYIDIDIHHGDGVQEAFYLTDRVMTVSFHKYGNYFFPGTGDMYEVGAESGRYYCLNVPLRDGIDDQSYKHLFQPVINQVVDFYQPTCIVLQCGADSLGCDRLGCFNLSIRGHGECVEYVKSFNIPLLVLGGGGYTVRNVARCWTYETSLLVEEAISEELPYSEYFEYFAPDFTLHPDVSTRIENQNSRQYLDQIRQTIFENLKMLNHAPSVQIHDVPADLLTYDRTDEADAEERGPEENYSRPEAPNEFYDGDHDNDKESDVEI
T1 sequence (O75376 whole entry partner): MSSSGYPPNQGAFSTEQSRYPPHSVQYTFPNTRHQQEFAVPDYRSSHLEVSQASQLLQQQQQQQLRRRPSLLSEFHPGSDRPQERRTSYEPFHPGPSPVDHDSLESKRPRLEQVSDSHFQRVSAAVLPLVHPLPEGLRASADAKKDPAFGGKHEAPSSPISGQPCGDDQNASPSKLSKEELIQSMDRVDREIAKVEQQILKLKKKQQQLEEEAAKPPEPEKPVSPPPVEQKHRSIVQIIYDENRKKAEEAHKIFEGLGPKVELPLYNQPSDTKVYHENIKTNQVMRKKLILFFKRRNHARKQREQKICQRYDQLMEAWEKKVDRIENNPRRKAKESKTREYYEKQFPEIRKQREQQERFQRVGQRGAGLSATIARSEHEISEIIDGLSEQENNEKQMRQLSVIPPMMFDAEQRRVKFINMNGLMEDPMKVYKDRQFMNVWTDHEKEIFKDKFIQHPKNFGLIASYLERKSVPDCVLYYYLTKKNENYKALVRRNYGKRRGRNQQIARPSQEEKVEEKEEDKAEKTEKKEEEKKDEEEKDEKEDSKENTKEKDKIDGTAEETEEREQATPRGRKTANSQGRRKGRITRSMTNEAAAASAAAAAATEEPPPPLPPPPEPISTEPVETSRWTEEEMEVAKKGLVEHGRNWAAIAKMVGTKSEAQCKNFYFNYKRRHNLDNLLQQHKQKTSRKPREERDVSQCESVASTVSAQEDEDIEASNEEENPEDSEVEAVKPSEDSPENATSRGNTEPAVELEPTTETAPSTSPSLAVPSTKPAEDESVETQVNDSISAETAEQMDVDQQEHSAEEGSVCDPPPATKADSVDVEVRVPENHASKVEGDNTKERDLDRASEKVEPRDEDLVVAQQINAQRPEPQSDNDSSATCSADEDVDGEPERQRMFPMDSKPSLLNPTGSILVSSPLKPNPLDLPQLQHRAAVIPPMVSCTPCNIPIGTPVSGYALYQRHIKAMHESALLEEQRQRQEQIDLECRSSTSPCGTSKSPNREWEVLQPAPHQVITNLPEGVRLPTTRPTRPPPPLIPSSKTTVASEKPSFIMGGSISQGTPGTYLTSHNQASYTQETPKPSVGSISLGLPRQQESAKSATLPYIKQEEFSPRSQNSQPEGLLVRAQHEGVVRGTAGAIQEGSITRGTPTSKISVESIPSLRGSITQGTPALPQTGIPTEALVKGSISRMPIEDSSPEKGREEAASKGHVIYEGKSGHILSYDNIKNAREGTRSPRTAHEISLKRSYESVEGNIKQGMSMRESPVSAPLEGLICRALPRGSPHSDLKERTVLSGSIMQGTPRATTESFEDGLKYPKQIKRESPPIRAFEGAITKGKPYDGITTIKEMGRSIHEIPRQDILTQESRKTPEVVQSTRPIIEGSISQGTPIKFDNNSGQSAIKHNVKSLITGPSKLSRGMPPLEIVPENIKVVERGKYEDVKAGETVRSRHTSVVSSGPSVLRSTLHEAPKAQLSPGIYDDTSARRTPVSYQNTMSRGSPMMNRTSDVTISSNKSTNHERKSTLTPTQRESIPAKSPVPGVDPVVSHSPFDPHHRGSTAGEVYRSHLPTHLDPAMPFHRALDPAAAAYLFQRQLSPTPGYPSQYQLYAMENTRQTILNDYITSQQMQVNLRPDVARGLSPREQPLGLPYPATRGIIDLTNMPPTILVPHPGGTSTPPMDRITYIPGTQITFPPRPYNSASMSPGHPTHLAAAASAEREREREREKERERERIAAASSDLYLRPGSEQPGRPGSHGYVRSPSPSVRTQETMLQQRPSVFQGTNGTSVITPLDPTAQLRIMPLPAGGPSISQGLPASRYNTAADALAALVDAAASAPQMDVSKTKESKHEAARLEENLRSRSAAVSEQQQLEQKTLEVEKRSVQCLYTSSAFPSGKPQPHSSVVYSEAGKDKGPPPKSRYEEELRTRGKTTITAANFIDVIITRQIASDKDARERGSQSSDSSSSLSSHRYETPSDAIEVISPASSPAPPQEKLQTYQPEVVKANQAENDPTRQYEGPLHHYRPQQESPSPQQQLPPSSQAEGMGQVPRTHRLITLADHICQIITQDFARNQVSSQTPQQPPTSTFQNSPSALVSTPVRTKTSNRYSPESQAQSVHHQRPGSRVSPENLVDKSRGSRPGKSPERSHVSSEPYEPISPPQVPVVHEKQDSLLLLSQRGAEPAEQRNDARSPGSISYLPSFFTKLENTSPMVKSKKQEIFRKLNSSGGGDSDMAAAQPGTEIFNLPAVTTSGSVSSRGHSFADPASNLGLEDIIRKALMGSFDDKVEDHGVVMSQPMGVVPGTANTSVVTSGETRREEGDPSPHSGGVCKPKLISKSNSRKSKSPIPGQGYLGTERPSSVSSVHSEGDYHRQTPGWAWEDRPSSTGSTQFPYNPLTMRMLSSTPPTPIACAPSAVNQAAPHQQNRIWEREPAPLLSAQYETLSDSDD

relative binding vs DMSO (HDAC3; log10 M -3.52288): 0.06787 | relative binding vs DMSO (HDAC3; log10 M -4): 0.1873 | relative binding vs DMSO (HDAC3; log10 M -4.52288): 0.229 | relative binding vs DMSO (HDAC3; log10 M -5): 0.6794 | relative binding vs DMSO (HDAC3; log10 M -5.52288): 1.111 | relative binding vs DMSO (HDAC3; log10 M -6): 0.7918 | relative binding vs DMSO (HDAC3; log10 M -6.52288): 1.34 | relative binding vs DMSO (HDAC3; log10 M -7): 0.7531 | pKd (HDAC3; read-out: Kd app): 4.89 | intracellular binding to HDAC10 (HDAC10): dose-dependent intracellular binding
Structure (SMILES): NC(=O)CCCCC1CCSS1 (racemic) [(R/S)-LM, (R/S)-lipoamide]
ROS (CellRox), relative to DMSO -Ars., Mean (A549 cells [1]; R/S-LM +Ars): 1.413 | ROS (CellRox), relative to DMSO -Ars., replicate values (A549 cells [1]; R/S-LM +Ars): 1.506 and 1.194 and 1.54 | ROS (CellRox), relative to DMSO -Ars., Mean (A549 cells [1]; R/S-LM -Ars): 1.131 | ROS (CellRox), relative to DMSO -Ars., replicate values (A549 cells [1]; R/S-LM -Ars): 1.077 and 0.9596 and 1.357

Structure (SMILES): O=C(O)CCCCC1CCSS1 (racemic) [(R/S)-LA, (R/S)-lipoic acid]
levels of ROS (oxidative stress) relative to control (A549 cells [2]; 100 µM drug pre-treatment, 2 h 200 µM tBuOOH): 60–70% | tBuOOH-induced ROS (CellRox), relative to DMSO, Mean (A549 cells [2]; (R/S)-LA 10 ?M): 0.7284 | tBuOOH-induced ROS (CellRox), relative to DMSO, replicate values (A549 cells [2]; (R/S)-LA 10 ?M): 0.6361 and 0.7994 and 0.7496 | tBuOOH-induced ROS (CellRox), relative to DMSO, Mean (A549 cells [2]; (R/S)-LA 30 ?M): 0.7039 | tBuOOH-induced ROS (CellRox), relative to DMSO, replicate values (A549 cells [2]; (R/S)-LA 30 ?M): 0.5919 and 0.6862 and 0.8337 | tBuOOH-induced ROS (CellRox), relative to DMSO, Mean (A549 cells [2]; (R/S)-LA 100 ?M): 0.6085 | tBuOOH-induced ROS (CellRox), relative to DMSO, replicate values (A549 cells [2]; (R/S)-LA 100 ?M): 0.608 and 0.6603 and 0.5572 | tBuOOH-induced ROS (CellRox), relative to DMSO, Mean (A549 cells [2]; (R/S)-LA 300 ?M): 0.7233 | tBuOOH-induced ROS (CellRox), relative to DMSO, replicate values (A549 cells [2]; (R/S)-LA 300 ?M): 0.909 and 0.609 and 0.652
